This assay has as its system CD2F1 mice, L1210 leukemia ip, survival T/C. As to the kind of experiment: NCI In Vivo Anticancer Drug Screen. Data for tumor model L1210 Leukemia (intraperitoneal) in CD2F1 (CDF1) mice. The settings on record: higher = longer survival. Put shortly:
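Activity against a transplanted murine tumor was judged by comparing the compound group with a vehicle group. The outcome in the treated animals was divided by that in the controls.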

The mark [1] stands for this setting: endpoint: mean survival time, dose: 12.5 mg/kg/injection, schedule: Q04DX003 (ip), vehicle: saline.
Where [2] appears, read: endpoint: mean survival time, dose: 25.0 mg/kg/injection, schedule: Q04DX003 (ip), vehicle: saline.
The mark [3] stands for this setting: endpoint: mean survival time, dose: 100.0 mg/kg/injection, schedule: Q04DX003 (ip), vehicle: saline with Tween-80.
The mark [4] stands for this setting: endpoint: mean survival time, dose: 100.0 mg/kg/injection, schedule: Q01DX009 (ip), vehicle: saline with Tween-80.
The mark [5] stands for this setting: endpoint: mean survival time, dose: 200.0 mg/kg/injection, schedule: Q04DX003 (ip), vehicle: saline with Tween-80.
Setting [6] is: endpoint: mean survival time, dose: 400.0 mg/kg/injection, schedule: Q04DX003 (ip), vehicle: saline with Tween-80.
[7] abbreviates: endpoint: mean survival time, dose: 200.0 mg/kg/injection, schedule: Q01DX009 (ip), vehicle: saline with Tween-80.
Where [8] appears, read: endpoint: mean survival time, dose: 400.0 mg/kg/injection, schedule: Q01DX009 (ip), vehicle: saline with Tween-80.

Where “and” joins values, the source holds several entries; their conditions need not be identical. Identical values can stand only once. Inconclusive results and toxic doses are left out.

Turning to `CCCCCCCCCCNC(=O)C[n+]1cccc(C(=O)N(C)C)c1`, the T/C (endpoint: mean survival time, dose: 12.5 mg/kg/injection, schedule: Q01DX009 (ip), vehicle: saline sonified) is 100 % of control; the T/C under setting [1] was 95 % of control; the T/C (endpoint: mean survival time, dose: 25.0 mg/kg/injection, schedule: Q01DX009 (ip), vehicle: saline sonified) was 97 % of control; the T/C under setting [2] is 97 % of control; the T/C (endpoint: mean survival time, dose: 50.0 mg/kg/injection, schedule: Q01DX009 (ip), vehicle: saline sonified) is 102 % of control; the T/C (endpoint: mean survival time, dose: 50.0 mg/kg/injection, schedule: Q04DX003 (ip), vehicle: saline) is 101 % of control.
As to `[CH3][Sb]([CH3])([CH3])([O]C(=O)CCl)[O]C(=O)CCl`, the T/C runs as follows: (endpoint: mean survival time, dose: 100.0 mg/kg/injection, schedule: Q04DX002 (ip), vehicle: saline with Tween-80) 107 % of control; (endpoint: mean survival time, dose: 200.0 mg/kg/injection, schedule: Q04DX002 (ip), vehicle: saline with Tween-80) 107 % of control; (endpoint: mean survival time, dose: 400.0 mg/kg/injection, schedule: Q04DX002 (ip), vehicle: saline with Tween-80) 103 % of control.
Regarding `Nc1nc(-c2ccccc2)cs1`, the T/C under setting [3] was 105 % of control.
On to `CCc1ncc(CO)n1Cc1ccccc1`, for which the T/C under setting [4] was 100 % of control.
As to `O=CCCOCCCl`, the T/C was 103 % of control under setting [3], 95 % of control under setting [5] and 100 % of control under setting [6].
As to `O=C(O)C1CC2C=CC1C2` (stereo not given), the T/C is 94 % of control under setting [4]; 96 % of control under setting [3]; 91 % of control under setting [7]; 96 % of control under setting [5]; 94 % of control under setting [8]; 94 % of control under setting [6].
Consider `O=C1C(Cl)=C(SCc2ccccc2)C(=O)c2ccccc21`, for which the T/C is, setting by setting: (endpoint: mean survival time, dose: 25.0 mg/kg/injection, schedule: Q04DX003 (ip), vehicle: saline with Tween-80) 91 % of control; (endpoint: mean survival time, dose: 50.0 mg/kg/injection, schedule: Q04DX003 (ip), vehicle: saline with Tween-80) 91 % of control.
In the case of `O=C1OCC2C(=O)OCC12` (stereo not given), the T/C (endpoint: mean survival time, dose: 50.0 mg/kg/injection, schedule: Q01DX001 (ip), vehicle: saline) was 107 % of control; the T/C (endpoint: mean survival time, dose: 100.0 mg/kg/injection, schedule: Q01DX001 (ip), vehicle: saline) was 101 % of control; the T/C (endpoint: mean survival time, dose: 200.0 mg/kg/injection, schedule: Q01DX001 (ip), vehicle: saline) was 107 % of control; the T/C (endpoint: mean survival time, dose: 400.0 mg/kg/injection, schedule: Q01DX001 (ip), vehicle: saline) is 109 % of control.
For `COc1c(C)ccc2c1CCN1C3=C(CCC21)CC1(CC3)OCCO1` (stereo not given), the T/C reads like this: under setting [4], 95 % of control; under setting [3], 92 % of control; under setting [7], 89 % of control; under setting [5], 94 % of control; under setting [6], 94 % of control.
Regarding `Cc1n[nH]n(Cc2ccccc2)c1=O`, the T/C reads like this: (endpoint: mean survival time, dose: 25.0 mg/kg/injection, schedule: Q01DX005 (ip), vehicle: saline with Tween-80) 97 % of control; (endpoint: mean survival time, dose: 50.0 mg/kg/injection, schedule: Q01DX005 (ip), vehicle: saline with Tween-80) 99 % of control; (endpoint: mean survival time, dose: 100.0 mg/kg/injection, schedule: Q01DX005 (ip), vehicle: saline with Tween-80) 97 % of control; (endpoint: mean survival time, dose: 200.0 mg/kg/injection, schedule: Q01DX005 (ip), vehicle: saline with Tween-80) 99 % of control; (endpoint: mean survival time, dose: 400.0 mg/kg/injection, schedule: Q01DX005 (ip), vehicle: saline with Tween-80) 97 % of control.
`COC(=O)/C=C/C(=O)NC(N)=O`: the T/C (endpoint: mean survival time, dose: 6.25 mg/kg/injection, schedule: Q04DX003 (ip), vehicle: saline) was 91 % of control; the T/C under setting [1] was 113 % of control; the T/C under setting [2] is 100 % of control.
On to `CCOC(=O)C(F)(F)F`, for which the T/C runs as follows: (endpoint: mean survival time, dose: 100.0 mg/kg/injection, schedule: Q01DX009 (ip), vehicle: saline) 95 % of control; (endpoint: mean survival time, dose: 200.0 mg/kg/injection, schedule: Q01DX009 (ip), vehicle: saline) 103 % of control; (endpoint: mean survival time, dose: 400.0 mg/kg/injection, schedule: Q01DX009 (ip), vehicle: saline) 95 % of control.
For `O=C(O)c1ccc(Nc2c3ccccc3nc3ccccc23)cc1`, the T/C runs as follows: (endpoint: mean survival time, dose: 44.0 mg/kg/injection, schedule: Q01DX009 (ip), vehicle: Klucel (hydroxypropylcellulose) (HPC)) 170 % of control and 179 % of control; (endpoint: mean survival time, dose: 66.0 mg/kg/injection, schedule: Q01DX009 (ip), vehicle: Klucel (hydroxypropylcellulose) (HPC)) 207 % of control and 225 % of control; (endpoint: mean survival time, dose: 75.0 mg/kg/injection, schedule: Q01DX001 (ip), vehicle: Klucel (hydroxypropylcellulose) (HPC)) 121 % of control; (endpoint: mean survival time, dose: 75.0 mg/kg/injection, schedule: Q04DX003 (ip), vehicle: Klucel (hydroxypropylcellulose) (HPC)) 154 % of control; (endpoint: mean survival time, dose: 88.0 mg/kg/injection, schedule: Q01DX001 (ip), vehicle: Klucel (hydroxypropylcellulose) (HPC)) 119 % of control; (endpoint: mean survival time, dose: 100.0 mg/kg/injection, schedule: Q01DX009 (ip), vehicle: Klucel (hydroxypropylcellulose) (HPC)) 167 % of control and 184 % of control. Further, the T/C is 162 % of control (endpoint: mean survival time, dose: 100.0 mg/kg/injection, schedule: Q04DX003 (ip), vehicle: Klucel (hydroxypropylcellulose) (HPC)); 167 % of control (endpoint: mean survival time, dose: 133.0 mg/kg/injection, schedule: Q04DX002 (ip), vehicle: Klucel (hydroxypropylcellulose) (HPC)); 166 % of control (endpoint: mean survival time, dose: 150.0 mg/kg/injection, schedule: Q04DX002 (ip), vehicle: Klucel (hydroxypropylcellulose) (HPC)); 172 % of control and 223 % of control (endpoint: mean survival time, dose: 150.0 mg/kg/injection, schedule: Q04DX003 (ip), vehicle: Klucel (hydroxypropylcellulose) (HPC)); 223 % of control (endpoint: mean survival time, dose: 200.0 mg/kg/injection, schedule: Q04DX002 (ip), vehicle: Klucel (hydroxypropylcellulose) (HPC)); 301 % of control (endpoint: mean survival time, dose: 225.0 mg/kg/injection, schedule: Q04DX003 (ip), vehicle: Klucel (hydroxypropylcellulose) (HPC)). Further, the T/C (endpoint: mean survival time, dose: 300.0 mg/kg/injection, schedule: Q01DX001 (ip), vehicle: Klucel (hydroxypropylcellulose) (HPC)) was 171 % of control and 201 % of control; the T/C (endpoint: mean survival time, dose: 300.0 mg/kg/injection, schedule: Q04DX002 (ip), vehicle: Klucel (hydroxypropylcellulose) (HPC)) is 212 % of control and 293 % of control; the T/C (endpoint: mean survival time, dose: 300.0 mg/kg/injection, schedule: Q04DX003 (ip), vehicle: Klucel (hydroxypropylcellulose) (HPC)) is 118 % of control; the T/C (endpoint: mean survival time, dose: 450.0 mg/kg/injection, schedule: Q04DX002 (ip), vehicle: Klucel (hydroxypropylcellulose) (HPC)) was 225 % of control.
On to `COc1cc2cc3c(c(O)c2c(O)c1/C=C/C(C)C)C(=O)CC(C)(OC(C)=O)C3` (stereo not given), for which the T/C is, setting by setting: (endpoint: median survival time, dose: 1.25 mg/kg/injection, schedule: Q01DX009 (ip), vehicle: Klucel (hydroxypropylcellulose) (HPC)) 105 % of control; (endpoint: median survival time, dose: 2.5 mg/kg/injection, schedule: Q01DX009 (ip), vehicle: Klucel (hydroxypropylcellulose) (HPC)) 102 % of control; (endpoint: median survival time, dose: 5.0 mg/kg/injection, schedule: Q01DX009 (ip), vehicle: Klucel (hydroxypropylcellulose) (HPC)) 113 % of control; (endpoint: median survival time, dose: 10.0 mg/kg/injection, schedule: Q01DX009 (ip), vehicle: Klucel (hydroxypropylcellulose) (HPC)) 116 % of control and 121 % of control; (endpoint: median survival time, dose: 20.0 mg/kg/injection, schedule: Q01DX009 (ip), vehicle: Klucel (hydroxypropylcellulose) (HPC)) 98 % of control and 105 % of control.
As to `CCOC(=O)Cc1cccc(CC(O)(c2ccccc2)c2ccccc2)n1`, the T/C is 100 % of control under setting [4]; 92 % of control (endpoint: mean survival time, dose: 100.0 mg/kg/injection, schedule: Q04DX003 (ip), vehicle: saline); 98 % of control under setting [7]; 90 % of control (endpoint: mean survival time, dose: 200.0 mg/kg/injection, schedule: Q04DX003 (ip), vehicle: saline); 100 % of control under setting [8]; 87 % of control (endpoint: mean survival time, dose: 400.0 mg/kg/injection, schedule: Q04DX003 (ip), vehicle: saline).
For `O=C(CBr)Nc1c2c(nc3ccccc13)CCCC2`, the T/C (endpoint: mean survival time, dose: 75.0 mg/kg/injection, schedule: Q01DX001 (ip), vehicle: saline with Tween-80) was 101 % of control; the T/C (endpoint: mean survival time, dose: 150.0 mg/kg/injection, schedule: Q01DX001 (ip), vehicle: saline with Tween-80) was 104 % of control; the T/C (endpoint: mean survival time, dose: 300.0 mg/kg/injection, schedule: Q01DX001 (ip), vehicle: saline with Tween-80) is 94 % of control.
As to `C(=Nc1ccc(-c2ccccc2)cc1)c1ccccc1`, the T/C was 87 % of control under setting [4] and 91 % of control under setting [8].
For `ClC(Cl)c1nc2ccccc2[nH]1`, the T/C was 89 % of control (endpoint: mean survival time, dose: 6.25 mg/kg/injection, schedule: Q01DX001 (ip), vehicle: Klucel (hydroxypropylcellulose) (HPC)); 96 % of control (endpoint: mean survival time, dose: 12.5 mg/kg/injection, schedule: Q01DX001 (ip), vehicle: Klucel (hydroxypropylcellulose) (HPC)); 89 % of control (endpoint: mean survival time, dose: 25.0 mg/kg/injection, schedule: Q01DX001 (ip), vehicle: Klucel (hydroxypropylcellulose) (HPC)).
Turning to `C=CC/C=C/C(C)(C)C`, the T/C (endpoint: mean survival time, dose: 50.0 mg/kg/injection, schedule: Q01DX009 (ip), vehicle: saline with Tween-80) was 103 % of control; the T/C under setting [4] is 100 % of control; the T/C under setting [7] was 100 % of control.

The values are drawn from PubChem BioAssay AID256 (DTP/NCI, 2004).
